Reference: ChEMBL document CHEMBL3045307, “Synthesis, characterization, and urease inhibition of 5-substituted-8-methyl-2H-pyrido[1,2-a]pyrimidine-2,4(3H)-diones” (Med Chem Res, 2012)

Tests used:
[1] = target: Urease (Canavalia ensiformis) (UniProt P07374); assay: Inhibition of Canavalia ensiformis (jack bean) urease assessed as ammonia production using urea as substrate at 10 uM after 15 min by indophenol method
[2] = target: Urease (Canavalia ensiformis) (UniProt P07374); assay: Inhibition of Canavalia ensiformis (jack bean) urease assessed as ammonia production using urea as substrate at 100 uM after 15 min by indophenol method
[3] = target: Urease (Canavalia ensiformis) (UniProt P07374); assay: Inhibition of Canavalia ensiformis (jack bean) urease assessed as ammonia production using urea as substrate at 0.01 uM after 15 min by indophenol method
[4] = target: Urease (Canavalia ensiformis) (UniProt P07374); assay: Inhibition of Canavalia ensiformis (jack bean) urease assessed as ammonia production using urea as substrate at 0.1 uM after 15 min by indophenol method
[5] = target: Urease (Canavalia ensiformis) (UniProt P07374); assay: Inhibition of Canavalia ensiformis (jack bean) urease assessed as ammonia production using urea as substrate at 1 uM after 15 min by indophenol method

Sequence of Urease (Canavalia ensiformis) (P07374 whole entry, looked up): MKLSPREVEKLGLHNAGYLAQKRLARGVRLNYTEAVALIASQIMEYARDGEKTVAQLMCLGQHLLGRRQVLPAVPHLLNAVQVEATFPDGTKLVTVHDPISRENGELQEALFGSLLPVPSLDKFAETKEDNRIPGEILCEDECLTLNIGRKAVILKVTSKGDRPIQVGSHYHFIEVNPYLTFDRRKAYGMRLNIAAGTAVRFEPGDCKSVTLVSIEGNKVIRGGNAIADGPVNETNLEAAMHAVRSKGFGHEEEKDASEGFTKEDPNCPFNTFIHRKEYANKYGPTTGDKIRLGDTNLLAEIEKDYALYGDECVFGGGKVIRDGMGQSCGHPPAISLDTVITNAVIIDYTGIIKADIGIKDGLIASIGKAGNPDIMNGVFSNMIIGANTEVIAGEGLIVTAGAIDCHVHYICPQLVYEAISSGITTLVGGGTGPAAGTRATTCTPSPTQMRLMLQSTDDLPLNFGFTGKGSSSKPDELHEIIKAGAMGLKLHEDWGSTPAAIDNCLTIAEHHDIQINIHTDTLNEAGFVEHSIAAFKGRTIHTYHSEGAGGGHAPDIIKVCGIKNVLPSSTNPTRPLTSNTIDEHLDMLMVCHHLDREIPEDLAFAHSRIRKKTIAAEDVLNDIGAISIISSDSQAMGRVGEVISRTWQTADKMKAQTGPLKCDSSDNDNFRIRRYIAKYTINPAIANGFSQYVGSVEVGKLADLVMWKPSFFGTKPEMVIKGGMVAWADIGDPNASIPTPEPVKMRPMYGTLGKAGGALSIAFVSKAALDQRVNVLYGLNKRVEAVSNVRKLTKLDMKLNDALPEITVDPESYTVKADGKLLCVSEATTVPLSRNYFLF

Row | SMILES | inhibition [1] | inhibition [2] | inhibition [3] | inhibition [4] | inhibition [5]
1 | CC1=CC2=NC(=O)/C(=C\Nc3cc(C)ccn3)C(=O)N2C=C1 | 20% | 33% | 1% | 6% | 16%
2 | CC1=CC2=NC(=O)/C(=C\Nc3ccccc3F)C(=O)N2C=C1 | 44% | 57% | 3% | 10% | 26%
3 | CC1=CC2=NC(=O)/C(=C\Nc3c(C)cc(C)cc3C)C(=O)N2C=C1 | -8% | 0.2% | – | -6% | -1%
4 | CC(=O)c1cccc(N/C=C2\C(=O)N=C3C=C(C)C=CN3C2=O)c1 | 28% | 45% | -1% | 3% | 8%
5 | CC1=CC2=NC(=O)/C(=C\Nc3ccc(F)cc3)C(=O)N2C=C1 | 21% | 35% | 1% | 6% | 14%
6 | CC1=CC2=NC(=O)CC(=O)N2C=C1 | 26% | 39% | 1% | 6% | 12%
7 | CC1=CC2=NC(=O)/C(=C\Nc3ccc([N+](=O)[O-])cn3)C(=O)N2C=C1 | 36% | 48% | 3% | 6% | 23%
8 | CC1=CC2=NC(=O)/C(=C\NNC(=O)c3ccc(Cl)cc3)C(=O)N2C=C1 | 14% | 43% | -4% | -2% | 6%
9 | CC1=CC2=NC(=O)/C(=C\NNC(=O)c3ccccc3)C(=O)N2C=C1 | 13% | 26% | -1% | 1% | 6%
10 | CC1=CC2=NC(=O)/C(=C\Nc3ccc(C)cn3)C(=O)N2C=C1 | 48% | 57% | 3% | 11% | 24%
11 | CC1=CC2=NC(=O)/C(=C\NNC(=O)c3ccc([N+](=O)[O-])cc3)C(=O)N2C=C1 | 60% | 87% | 6% | 21% | 54%
12 | CC1=CC2=NC(=O)/C(=C\Nc3cccc(F)c3)C(=O)N2C=C1 | 3% | 28% | – | – | –
13 | CC(=O)c1ccccc1N/C=C1\C(=O)N=C2C=C(C)C=CN2C1=O | 54% | 69% | 11% | 19% | 32%
14 | NC(N)=S | 21% | 94% | 8% | 8% | 15%
15 | CC(=O)c1ccc(N/C=C2\C(=O)N=C3C=C(C)C=CN3C2=O)cc1 | 5% | 18% | -3% | -2% | 1%
16 | CC1=CC2=NC(=O)/C(=C\Nc3ccccc3S)C(=O)N2C=C1 | 73% | 97% | 22% | 28% | 60%
17 | CC1=CC2=NC(=O)/C(=C\NNC(=O)c3ccc(O)cc3)C(=O)N2C=C1 | 22% | 39% | -5% | -1% | 7%
18 | CC1=CC2=NC(=O)/C(=C\NNC(=O)c3ccc(Br)cc3)C(=O)N2C=C1 | 23% | 57% | -8% | -2% | 3%
